Laboratory results from US20260191968A1, “PROTAC DEGRADERS OF MLLT1 AND/OR MLLT3” (DARK BLUE THERAPEUTICS LTD, priority 2024, published 2026).

Target: T1, MLLT1 (Homo sapiens, UniProt Q03111)
T1 construct: host or cells: MV4-11
T1 sequence (Q03111 1-559): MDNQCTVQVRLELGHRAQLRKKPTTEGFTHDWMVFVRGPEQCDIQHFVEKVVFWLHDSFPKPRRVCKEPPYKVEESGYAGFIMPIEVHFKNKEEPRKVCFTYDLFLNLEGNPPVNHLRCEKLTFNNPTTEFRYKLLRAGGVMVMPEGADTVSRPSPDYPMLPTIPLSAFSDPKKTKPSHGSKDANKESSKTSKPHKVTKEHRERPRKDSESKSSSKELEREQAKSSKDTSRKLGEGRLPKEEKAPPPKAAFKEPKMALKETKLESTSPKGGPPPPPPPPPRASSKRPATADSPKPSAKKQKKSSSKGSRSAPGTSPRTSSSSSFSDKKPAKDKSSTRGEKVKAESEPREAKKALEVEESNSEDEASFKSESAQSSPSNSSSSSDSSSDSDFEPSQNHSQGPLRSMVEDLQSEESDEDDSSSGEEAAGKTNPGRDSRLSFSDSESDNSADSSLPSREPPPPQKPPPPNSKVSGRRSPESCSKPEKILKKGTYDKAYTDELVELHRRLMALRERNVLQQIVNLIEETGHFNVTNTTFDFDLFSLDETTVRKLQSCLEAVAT
Test: MLLT1 degradation assay in MV4-11 cells (JESS chemiluminescent detection), three concentrations, 24 h
Assay type: cell-based
Conditions: with respect to DMSO control
Outline: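 MV4-11 cells treated 24 h at 37° C, 5% CO2 with 1000, 100 and 10 nM compound (0.1% DMSO final). MLLT1 quantified by automated capillary chemiluminescent immunodetection; band peak area expressed as % degradation relative to DMSO control.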

Structure (SMILES) | MLLT1% Degradation @ 0.01 μM | MLLT1% Degradation @ 0.1 μM | MLLT1% Degradation @ 1 μM
CN1CCC[C@@H]1c1cc2cnc(NC(=O)c3ccc(CCCN4CCN(c5cccc6c5C(=O)N(C5CCC(=O)NC5=O)C6=O)CC4)cc3)cc2[nH]1 (stereo partly drawn) [Example 130, 4-(3-(4-(2-(2,6-dioxopiperidin-3-yl)-1,3-dioxoisoindolin-4-yl)piperazin-1-yl)propyl)-N-(2-((R)-1-methylpyrrolidin-2-yl)-1H-pyrrolo[3,2-c]pyridin-6-yl)benzamide] | B (Category B: 50% ≤ B < 75% degradation) | A (Category A: A ≥ 75% degradation) | A (Category A: A ≥ 75% degradation)
CN1CCC[C@@H]1c1cc2cnc(NC(=O)c3ccc(CCCC#Cc4ccc5c(c4)C(=O)N(C4CCC(=O)NC4=O)C5)cc3)cc2[nH]1 (stereo partly drawn) [Example 225, 4-(5-(2-(2,6-dioxopiperidin-3-yl)-3-oxoisoindolin-5-yl)pent-4-yn-1-yl)-N-(2-((R)-1-methylpyrrolidin-2-yl)-1H-pyrrolo[3,2-c]pyridin-6-yl)benzamide] | C (Category C: 25% ≤ C < 50% degradation) | C (Category C: 25% ≤ C < 50% degradation) | C (Category C: 25% ≤ C < 50% degradation)
CN1CCC[C@@H]1c1cc2cnc(NC(=O)c3cccc(NCC4CCN(c5cccc6c5C(=O)N(C5CCC(=O)NC5=O)C6=O)CC4)c3)cc2[nH]1 (stereo partly drawn) [Example 46, 3-(((1-(2-(2,6-dioxopiperidin-3-yl)-1,3-dioxoisoindolin-4-yl)piperidin-4-yl)methyl)amino)-N-(2-((R)-1-methylpyrrolidin-2-yl)-1H-pyrrolo[3,2-c]pyridin-6-yl)benzamide] |  | B (Category B: 50% ≤ B < 75% degradation) | B (Category B: 50% ≤ B < 75% degradation)
CN1CCC[C@@H]1c1[nH]c2cc(NC(=O)c3ccc(CCCCC#Cc4cccc5c4CN(C4CCC(=O)NC4=O)C5=O)nc3)ncc2c1Cl (stereo partly drawn) [Example 71, N-(3-chloro-2-((R)-1-methylpyrrolidin-2-yl)-1H-pyrrolo[3,2-c]pyridin-6-yl)-6-(6-(2-(2,6-dioxopiperidin-3-yl)-1-oxoisoindolin-4-yl)hex-5-yn-1-yl) nicotinamide] | A (Category A: A ≥ 75% degradation) | A (Category A: A ≥ 75% degradation) | B (Category B: 50% ≤ B < 75% degradation)
CN1CCC[C@@H]1c1cc2cnc(NC(=O)c3ccc(CCCC#Cc4cccc5c4C(=O)N(C4CCC(=O)NC4=O)C5=O)cc3)cc2[nH]1 (stereo partly drawn) [Example 110, 4-(5-(2-(2,6-dioxopiperidin-3-yl)-1,3-dioxoisoindolin-4-yl)pent-4-yn-1-yl)-N-(2-((R)-1-methylpyrrolidin-2-yl)-1H-pyrrolo[3,2-c]pyridin-6-yl)benzamide] | C (Category C: 25% ≤ C < 50% degradation) | A (Category A: A ≥ 75% degradation) | A (Category A: A ≥ 75% degradation)
Cc1cc(OC2CCN(c3ccc(C(=O)Nc4cc5[nH]c([C@H]6CCCN6C)cc5cn4)c(F)c3)CC2)ccc1-c1cccc2c1CN(C1CCC(=O)NC1=O)C2=O (stereo partly drawn) [Example 203, 4-(4-(4-(2-(2,6-dioxopiperidin-3-yl)-1-oxoisoindolin-4-yl)-3-methylphenoxy)piperidin-1-yl)-2-fluoro-N-(2-((R)-1-methylpyrrolidin-2-yl)-1H-pyrrolo[3,2-c]pyridin-6-yl)benzamide] | C (Category C: 25% ≤ C < 50% degradation) | C (Category C: 25% ≤ C < 50% degradation) | B (Category B: 50% ≤ B < 75% degradation)
CN1CCC[C@@H]1c1cc2cnc(NC(=O)c3ccc(CCCC#Cc4cccc(C(=O)N[C@H]5CCC(=O)NC5=O)n4)cc3)cc2[nH]1 [Example 97, N—((S)-2,6-dioxopiperidin-3-yl)-6-(5-(4-((2-((R)-1-methylpyrrolidin-2-yl)-1H-pyrrolo[3,2-c]pyridin-6-yl)carbamoyl)phenyl)pent-1-yn-1-yl)picolinamide] | C (Category C: 25% ≤ C < 50% degradation) | B (Category B: 50% ≤ B < 75% degradation) | B (Category B: 50% ≤ B < 75% degradation)
CN1CCC[C@@H]1c1cc2cnc(NC(=O)c3ccc(OC4CCN(CC5CCN(c6cccc7c6CN(C6CCC(=O)NC6=O)C7=O)CC5)CC4)cc3)cc2[nH]1 (stereo in doubt) [Example 123, 4-((1-((1-(2-((rel-R)-2,6-dioxopiperidin-3-yl)-1-oxoisoindolin-4-yl)piperidin-4-yl)methyl)piperidin-4-yl)oxy)-N-(2-((R)-1-methylpyrrolidin-2-yl)-1H-pyrrolo[3,2-c]pyridin-6-yl)benzamide] | A (Category A: A ≥ 75% degradation) | A (Category A: A ≥ 75% degradation) | A (Category A: A ≥ 75% degradation)
CN1CCC[C@@H]1c1cc2cnc(NC(=O)c3ccc(N4CCN(CC5CCN(c6cccc7c6C(=O)N(C6CCC(=O)NC6=O)C7=O)CC5)CC4)nc3)cc2[nH]1 (stereo partly drawn) [Example 5, 6-(4-((1-(2-(2,6-dioxopiperidin-3-yl)-1,3-dioxoisoindolin-4-yl)piperidin-4-yl)methyl)piperazin-1-yl)-N-(2-((R)-1-methylpyrrolidin-2-yl)-1H-pyrrolo[3,2-c]pyridin-6-yl)nicotinamide] | B (Category B: 50% ≤ B < 75% degradation) | A (Category A: A ≥ 75% degradation) | A (Category A: A ≥ 75% degradation)
Cc1cc(CCOc2ccc(C(=O)Nc3cc4[nH]c([C@H]5CCCN5C)cc4cn3)c(F)c2)ccc1-c1cccc2c1CN(C1CCC(=O)NC1=O)C2=O (stereo partly drawn) [Example 208, 4-(4-(2-(2,6-dioxopiperidin-3-yl)-1-oxoisoindolin-4-yl)-3-methylphenethoxy)-2-fluoro-N-(2-((R)-1-methylpyrrolidin-2-yl)-1H-pyrrolo[3,2-c]pyridin-6-yl)benzamide] | A (Category A: A ≥ 75% degradation) | A (Category A: A ≥ 75% degradation) | A (Category A: A ≥ 75% degradation)
CN1CCC[C@@H]1c1cc2cnc(NC(=O)c3ccc(N4CCC(CCCCC#Cc5cccc6c5CN(C5CCC(=O)NC5=O)C6=O)CC4)nc3)cc2[nH]1 (stereo partly drawn) [Example 188, 6-(4-(6-(2-(2,6-dioxopiperidin-3-yl)-1-oxoisoindolin-4-yl)hex-5-yn-1-yl)piperidin-1-yl)-N-(2-((R)-1-methylpyrrolidin-2-yl)-1H-pyrrolo[3,2-c]pyridin-6-yl)nicotinamide] | C (Category C: 25% ≤ C < 50% degradation) | B (Category B: 50% ≤ B < 75% degradation) | B (Category B: 50% ≤ B < 75% degradation)
CN1CCC[C@@H]1c1cc2cnc(NC(=O)c3ccc(OCC4CCN(c5cccc6c5CN(C5CCC(=O)NC5=O)C6=O)CC4)cc3F)cc2[nH]1 (stereo partly drawn) [Example 214, 4-((1-(2-(2,6-dioxopiperidin-3-yl)-1-oxoisoindolin-4-yl)piperidin-4-yl)methoxy)-2-fluoro-N-(2-((R)-1-methylpyrrolidin-2-yl)-1H-pyrrolo[3,2-c]pyridin-6-yl)benzamide] | A (Category A: A ≥ 75% degradation) | A (Category A: A ≥ 75% degradation) | A (Category A: A ≥ 75% degradation)
CN1CCC[C@@H]1c1cc2cnc(NC(=O)c3ccc(N4CC(CN5CCN(c6ccc7c(c6)C(=O)N(C6CCC(=O)NC6=O)C7=O)CC5)C4)cc3)cc2[nH]1 (stereo partly drawn) [Example 183, 4-(3-((4-(2-(2,6-dioxopiperidin-3-yl)-1,3-dioxoisoindolin-5-yl)piperazin-1-yl)methyl)azetidin-1-yl)-N-(2-((R)-1-methylpyrrolidin-2-yl)-1H-pyrrolo[3,2-c]pyridin-6-yl)benzamide] | C (Category C: 25% ≤ C < 50% degradation) | B (Category B: 50% ≤ B < 75% degradation) | B (Category B: 50% ≤ B < 75% degradation)
CN1CCC[C@@H]1c1cc2cnc(NC(=O)N3CCC(CCC#Cc4cccc5c4CN(C4CCC(=O)NC4=O)C5=O)CC3)cc2[nH]1 (stereo partly drawn) [Example 1, 4-(4-(2-(2,6-dioxopiperidin-3-yl)-1-oxoisoindolin-4-yl)but-3-yn-1-yl)-N-(2-((R)-1-methylpyrrolidin-2-yl)-1H-pyrrolo[3,2-c]pyridin-6-yl)piperidine-1-carboxamide] | C (Category C: 25% ≤ C < 50% degradation) | C (Category C: 25% ≤ C < 50% degradation) | C (Category C: 25% ≤ C < 50% degradation)
